Values after ≈ are worked out from the molar mass of the structure shown. Where two headings read alike, the source gives them in different places.
Columns and labels:
M. tuberculosis Erdman = test: Chronic Balb/c model of TB infection; assay type: in vivo, Balb/c mice; conditions: 200 mg/kg
in vivo = test: in vivo; design: species or system Balb/c mice
Protocol: ND-11543 was dissolved in 20% TPGS (d-α tocopheryl polyethylene glycol 1000 succinate) to give a fine white suspension which was dosed at 100, 300 and 500 mg/kg orally on three consecutive days, 3 mice per dose group. Mice were observed 10 min, 1, 2, 4 hr after dosing and then daily afterwards. During the observations, humane handling practices and animal welfare regulations were strictly followed.

in vitro [1] = conditions: human, Caco-2
H37Rv-Mtb = test: MIC against replicating H37Rv-Mtb in liquid media; assay type: cell-based, Mycobacterium tuberculosis; conditions: Mycobacterium tuberculosis, H37RV, 120 h, replicating, 5 days, OD590
[2] = Relative solubility by turbidity in microbiological medium; conditions: pH 6.8, aqueous buffer, kinetic from dmso stock, lowest concentration at which compound was insoluble (turbidity)
Protocol: The relative solubility of compounds was determined in microbiological medium using turbidity as a measure [27]. A serial dilution of compounds was prepared in DMSO and then transferred to microbiological medium at pH 6.8.

Single dose plasma PK = assay type: in vivo, Balb/c mice
Protocol: Basic pharmacokinetic analysis was determined after a single dose of 200 mg/kg with and without the administration of 100 mg/kg of 1-aminobenzotriazole (ABT) (Sigma, #A3940) given 2 hr by gavage prior to ND-11543 administration. ABT (100 mg/kg dose) was administered by oral gavage in 0.5% (w/v) methyl cellulose 400 solution. ND-11543 (200 mg/kg dose) was prepared in 20% TPGS and dosed orally 2 hr after ABT administration. Female mice (6–8 week old Balb/c from Charles River) were rested one to two weeks before dosing. Blood was collected from the mice at time points of 0.5, 2, 4, 8, 12 and 24 hr after drug administration. Blood samples (< 100 μL each) for all time points were collected via the mandibular vein in plasma collector tubes, centrifuged and plasma (< 50 μL each) was frozen until further use. Plasma samples were analyzed by LC/MS to determine drug plasma levels.

[3] = tested on: CYP2B6, CYP2C8, CYP2C9, CYP2C19, CYP2D6, CYP3A4; test: in vitro; assay type: in vitro ADME; conditions: human; range over isoforms, >10 to >20; read-out: IC50 against all the major cytochrome P450 isoforms
Protocol: (§1) Compounds were tested for inhibition of six cytochrome P450 enzyme isoforms—CYP2B6, CYP2C8, CYP2C9, CYP2C19, CYP2D6 and CYP3A4 [27]. For each assay, human liver microsomes were incubated with a probe substrate for each CYP isoform in the presence of compound. Compounds were prepared as a 7-point dilution series in acetonitrile:DMSO (9:1). The final DMSO content in the reaction mixture was equal in all solutions used within an assay and was < 0.2%. Samples were run in duplicate.

[4] = tested on: M. tuberculosis strain H37Rv-LUX; test: microbe, parasite or virus in culture; assay type: cell-based; conditions: Mycobacterium tuberculosis, read-out: LORA MIC
VERO cell line = test: Eukaryotic cytotoxicity (CellTiter-Glo); assay type: cell-based, African green monkey; conditions: Chlorocebus sabaeus, 48 h, 2-day incubation, read-out: VERO Toxicity IC50
Protocol: Cytotoxicity was tested against the African green monkey adult kidney cell line (VERO, ATCC CRL-1586) as described. Compounds were tested as 10-point, 3-fold serial dilutions in DMSO (final assay concentration of 1% DMSO) and viability was measured using CellTiter-Glo (Promega). Inhibition curves were fitted using the Levenberg–Marquardt algorithm. IC50 was defined as the concentration required to reduce cell viability by 50% after 2-day incubation.

[5] = tested on: M. tuberculosis GC1237 (Mtb-GFP) in Raw 264.7 macrophages; test: Intracellular mycobacterial replication assay in macrophages; assay type: cell-based; conditions: Mycobacterium tuberculosis, 120 h, 5 days, read-out: MIC, intracellular M. tuberculosis growth in macrophages
CYP2C9 = molecular target: T1, CYP2C9 (Homo sapiens, UniProt P11712); test: biochemical; assay type: in vitro ADME; conditions: human liver microsomes; read-out: Cytochrome P450 Inhibition IC50 CYP2C9
T1 construct: human liver microsomes were incubated with a probe substrate for each CYP isoform; from tissue; host or cells: human liver microsomes
Protocol: as §1

CYP2C8 = molecular target: T2, CYP2C8 (Homo sapiens, UniProt P10632); test: biochemical; assay type: in vitro ADME; conditions: human liver microsomes; read-out: Cytochrome P450 Inhibition IC50 CYP2C8
T2 construct: human liver microsomes were incubated with a probe substrate for each CYP isoform; from tissue; host or cells: human liver microsomes
Protocol: as §1

CYP3A4 = molecular target: T3, CYP3A4 (Homo sapiens, UniProt P08684); test: biochemical; assay type: in vitro ADME
T3 construct: human liver microsomes were incubated with a probe substrate for each CYP isoform; from tissue; host or cells: human liver microsomes
Protocol: as §1

CYP2B6 = molecular target: T4, CYP2B6 (Homo sapiens, UniProt P20813); test: biochemical; assay type: in vitro ADME; conditions: human liver microsomes; read-out: Cytochrome P450 Inhibition IC50 CYP2B6
T4 construct: human liver microsomes were incubated with a probe substrate for each CYP isoform; from tissue; host or cells: human liver microsomes
Protocol: as §1

CYP2C19 = molecular target: T5, CYP2C19 (Homo sapiens, UniProt P33261); test: biochemical; assay type: in vitro ADME; conditions: human liver microsomes; read-out: Cytochrome P450 Inhibition IC50 CYP2C19
T5 construct: human liver microsomes were incubated with a probe substrate for each CYP isoform; from tissue; host or cells: human liver microsomes
Protocol: as §1

CYP2D6 = molecular target: T6, CYP2D6 (Homo sapiens, UniProt P10635); test: biochemical; assay type: in vitro ADME; conditions: human liver microsomes; read-out: Cytochrome P450 Inhibition IC50 CYP2D6
T6 construct: human liver microsomes were incubated with a probe substrate for each CYP isoform; from tissue; host or cells: human liver microsomes
Protocol: as §1

[6] = tested on: murine Raw 264.7 macrophages; conditions: mouse
in vitro [7] = assay type: in vitro ADME; conditions: human, s9, NADPH, 37°C
Protocol: Compounds were tested for microsomal stability using pooled human liver S9 microsomes. Microsomes were incubated with the test compound at 37°C in the presence of the co-factor NADPH. The reaction was terminated, the supernatant recovered, and test compounds quantified by LC-MS/MS. A fixed concentration of test compound was tested in duplicate at 5 timepoints and compound stability was expressed as a function of time. Human liver microsomes were purchased from Celsis (catalog number X008068).

T3 sequence (P08684 whole entry, canonical isoform): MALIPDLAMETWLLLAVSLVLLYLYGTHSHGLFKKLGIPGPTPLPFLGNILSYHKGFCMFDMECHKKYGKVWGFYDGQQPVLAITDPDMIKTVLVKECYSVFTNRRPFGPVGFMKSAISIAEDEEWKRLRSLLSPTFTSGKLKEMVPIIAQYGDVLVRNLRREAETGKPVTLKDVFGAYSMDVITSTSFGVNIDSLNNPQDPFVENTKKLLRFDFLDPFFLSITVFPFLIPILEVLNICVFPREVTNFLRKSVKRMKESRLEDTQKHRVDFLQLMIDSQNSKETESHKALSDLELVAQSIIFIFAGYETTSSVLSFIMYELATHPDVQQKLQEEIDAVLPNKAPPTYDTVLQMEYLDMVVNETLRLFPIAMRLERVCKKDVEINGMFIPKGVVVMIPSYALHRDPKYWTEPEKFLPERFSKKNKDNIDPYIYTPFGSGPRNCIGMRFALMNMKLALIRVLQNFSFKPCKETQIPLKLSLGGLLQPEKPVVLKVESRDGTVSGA
T1 sequence (P11712 whole entry, canonical isoform): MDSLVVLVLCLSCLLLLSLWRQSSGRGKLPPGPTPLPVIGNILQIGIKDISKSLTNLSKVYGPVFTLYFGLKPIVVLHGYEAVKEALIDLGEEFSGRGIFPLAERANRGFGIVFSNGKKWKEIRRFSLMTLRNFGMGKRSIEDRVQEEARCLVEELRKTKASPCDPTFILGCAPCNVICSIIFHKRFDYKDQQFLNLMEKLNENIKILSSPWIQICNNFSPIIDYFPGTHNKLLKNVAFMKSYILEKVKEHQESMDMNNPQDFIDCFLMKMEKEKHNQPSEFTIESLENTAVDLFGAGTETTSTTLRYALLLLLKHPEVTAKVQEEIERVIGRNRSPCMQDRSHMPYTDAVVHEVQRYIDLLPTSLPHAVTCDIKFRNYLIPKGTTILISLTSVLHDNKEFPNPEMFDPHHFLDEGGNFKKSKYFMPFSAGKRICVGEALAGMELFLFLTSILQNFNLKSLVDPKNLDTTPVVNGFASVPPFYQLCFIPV
T4 sequence (P20813 whole entry, canonical isoform): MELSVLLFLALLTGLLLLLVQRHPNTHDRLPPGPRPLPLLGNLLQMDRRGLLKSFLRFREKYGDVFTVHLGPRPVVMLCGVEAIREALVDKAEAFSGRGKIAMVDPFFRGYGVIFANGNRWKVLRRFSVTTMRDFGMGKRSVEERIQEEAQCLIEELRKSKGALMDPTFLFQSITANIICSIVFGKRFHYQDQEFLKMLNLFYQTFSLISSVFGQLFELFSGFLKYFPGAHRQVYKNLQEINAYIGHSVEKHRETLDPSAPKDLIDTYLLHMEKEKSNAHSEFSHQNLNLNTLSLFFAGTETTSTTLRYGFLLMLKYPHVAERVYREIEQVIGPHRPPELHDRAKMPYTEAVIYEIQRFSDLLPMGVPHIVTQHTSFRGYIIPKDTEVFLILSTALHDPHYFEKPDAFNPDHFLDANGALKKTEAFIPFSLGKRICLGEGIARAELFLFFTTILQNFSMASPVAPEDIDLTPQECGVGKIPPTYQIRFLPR
T2 sequence (P10632 whole entry, canonical isoform): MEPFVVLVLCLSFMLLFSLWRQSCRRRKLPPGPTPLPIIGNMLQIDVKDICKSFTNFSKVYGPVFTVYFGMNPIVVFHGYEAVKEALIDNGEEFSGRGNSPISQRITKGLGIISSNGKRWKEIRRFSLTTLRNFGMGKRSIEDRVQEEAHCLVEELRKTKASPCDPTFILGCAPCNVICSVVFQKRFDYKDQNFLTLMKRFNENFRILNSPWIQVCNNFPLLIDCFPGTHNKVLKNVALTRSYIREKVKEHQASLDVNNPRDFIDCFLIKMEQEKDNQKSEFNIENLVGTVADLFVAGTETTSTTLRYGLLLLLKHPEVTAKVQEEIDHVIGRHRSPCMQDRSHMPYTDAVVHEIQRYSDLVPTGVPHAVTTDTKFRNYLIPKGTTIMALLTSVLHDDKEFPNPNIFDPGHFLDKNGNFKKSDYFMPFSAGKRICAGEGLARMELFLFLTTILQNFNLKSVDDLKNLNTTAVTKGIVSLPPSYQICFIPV
T6 sequence (P10635 whole entry, canonical isoform): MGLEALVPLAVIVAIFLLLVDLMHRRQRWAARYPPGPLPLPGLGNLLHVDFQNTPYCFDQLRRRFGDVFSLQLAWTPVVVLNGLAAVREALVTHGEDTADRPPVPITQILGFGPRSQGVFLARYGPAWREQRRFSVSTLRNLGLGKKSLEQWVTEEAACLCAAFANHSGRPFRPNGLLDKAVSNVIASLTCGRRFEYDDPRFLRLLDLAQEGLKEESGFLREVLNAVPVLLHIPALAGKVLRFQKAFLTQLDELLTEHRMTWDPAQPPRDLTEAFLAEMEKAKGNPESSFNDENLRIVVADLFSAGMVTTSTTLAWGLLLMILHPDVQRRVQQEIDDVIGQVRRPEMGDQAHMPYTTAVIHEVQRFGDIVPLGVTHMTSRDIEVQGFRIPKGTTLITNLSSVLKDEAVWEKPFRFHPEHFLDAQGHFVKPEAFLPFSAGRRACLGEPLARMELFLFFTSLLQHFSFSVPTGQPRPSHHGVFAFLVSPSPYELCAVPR
T5 sequence (P33261 whole entry, canonical isoform): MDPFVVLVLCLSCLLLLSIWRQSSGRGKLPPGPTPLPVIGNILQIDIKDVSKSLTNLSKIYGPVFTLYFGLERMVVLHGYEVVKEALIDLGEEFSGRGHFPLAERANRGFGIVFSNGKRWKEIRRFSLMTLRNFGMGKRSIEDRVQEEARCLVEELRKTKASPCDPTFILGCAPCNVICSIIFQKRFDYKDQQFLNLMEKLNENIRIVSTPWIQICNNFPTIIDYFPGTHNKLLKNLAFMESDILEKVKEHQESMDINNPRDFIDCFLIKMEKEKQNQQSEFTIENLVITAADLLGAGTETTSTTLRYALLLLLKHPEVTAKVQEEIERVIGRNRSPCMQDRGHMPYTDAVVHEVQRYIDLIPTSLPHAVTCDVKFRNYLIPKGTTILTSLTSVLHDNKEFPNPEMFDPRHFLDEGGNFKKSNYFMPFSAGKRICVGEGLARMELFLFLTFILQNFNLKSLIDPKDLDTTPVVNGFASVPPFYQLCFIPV

Cc1cn2c(C(=O)NCc3ccc(N4CCN(c5ccc(C(F)(F)F)cn5)CC4)c(F)c3)c(C)nc2s1 [ND-11543, N-(3-fluoro-4-(4-(5-(trifluoromethyl)pyridin-2-yl)piperazin-1-yl)benzyl)-2,6-dimethylimidazo[2,1-b]thiazole-5-carboxamide]
Log reduction vs Control (Lung) (M. tuberculosis Erdman; 4 weeks, without ABT): 0.30 log10 CFU | Log reduction vs Control (Spleen) (M. tuberculosis Erdman; 4 weeks, without ABT): 0.36 log10 CFU | Lung Log10 CFU ±SEM (M. tuberculosis Erdman; ERDMAN, 672 h): 5.49 ± 0.08 Log10 CFU | Spleen Log10 CFU ±SEM (M. tuberculosis Erdman; ERDMAN, 672 h): 4.64 ± 0.11 Log10 CFU | MTD (in vivo; female, Balb/c, mouse, in vivo, mice, oral, three consecutive daily doses, read-out: Maximum Tolerated Dose, MTD): > 500 mg/kg | Acute toxicity observation (in vivo; mice, 100, 300 and 500 mg/kg oral): No acute toxicity was observed | Papp A→B at 1 h (in vitro [1]): 0.376 ×10⁻⁶ cm/s | Papp A→B at 2 h (in vitro [1]): 0.731 ×10⁻⁶ cm/s | Papp B→A at 1 h (in vitro [1]): 1.09 ×10⁻⁶ cm/s | Papp B→A at 2 h (in vitro [1]): 0.758 ×10⁻⁶ cm/s | efflux ratio (in vitro [1]): 2.23 | MIC (H37Rv-Mtb): 0.008 µM (≈ 0.00426 µg/mL) | solubility [2]: 50 µM (≈ 26.6 µg/mL) | AUC(0–24)/Dose (Single dose plasma PK; 200 mg/kg oral, without ABT): 58.5 ng·h/mL/mg/kg | Cmax/Dose (Single dose plasma PK; 200 mg/kg oral, without ABT): 3.22 ng/mL/mg/kg | Relative Bioavailability [(TA+ABT) / TA] (Single dose plasma PK; female, Balb/c, mouse, in vivo): 318.25 | half-life (Single dose plasma PK; female, Balb/c, mouse, plasma, 200 mg/kg oral, without ABT): > 1440 min | IC50 [3]: > 10 µM | MIC [4]: 1.1 µM (≈ 0.586 µg/mL) | IC50 (VERO cell line): > 50 µM | MIC [5]: 0.0625 µM (≈ 0.0333 µg/mL) | IC50 (CYP2C9): 10.2 µM | IC50 (CYP2C8): 18.4 µM | IC50 (CYP3A4; DDI assay including midazolam, read-out: Cytochrome P450 Inhibition IC50 CYP3A4 (midazolam)): > 20 µM | IC50 (CYP3A4; DDI assay including tetosterone, read-out: Cytochrome P450 Inhibition IC50 CYP3A4 (tetosterone)): > 20 µM | IC50 (CYP2B6): > 20 µM | IC50 (CYP2C19): > 20 µM | IC50 (CYP2D6): > 20 µM | Macrophage toxicity concentration relative to MIC [6]: 4 and 8-fold higher than their MIC | microsomal CLint (in vitro [7]; read-out: Human liver S9 Microsomes CL): 81.3 µL/min/mg | half-life (in vitro [7]; read-out: Human liver S9 Microsomes T ½): 28.4 min

— PMC6944458, “Intracellular and in vivo evaluation of imidazo[2,1-b]thiazole-5-carboxamide anti-tuberculosis compounds” (PLoS ONE, 2020)
